Earlier results as cited in article PMC5107951 (Scientific Reports, 2016).

System: GABA-A receptor
Conditions: cited from earlier work

Substance	binding to GABA-A receptor (in words)
α-cobratoxin	also binds
α-conotoxin ImI	low affinity
